Results published in paper PMC12454493, “Insight on novel sulfamoylphenyl pyrazole derivatives as anticancer carbonic anhydrase inhibitors” (Molecular Diversity, 2024).

Tests used:
Format in all cases: cell-based
CCRF-CEM = assay: NCI-60 one-dose SRB screen (Leukemia); details: Homo sapiens, single dose 10 µM, 48 h, read-out: Growth inhibition percent (GI %)
Description: (§1) The National Cancer Institute (NCI) Developmental Therapeutic Program (www.dtp.nci.nih.gov) selected the 20 novel synthesized compounds 4a-e, 5a-e, 6a-c, 9a-e, 10 and 11 to test for their anticancer activity at a single dose of 10 µM using SRB assay. […] Supplementary Data S3; Table S1 presents the detailed screening results of the most promising compounds. The preliminary screening’s detailed results for the remaining compounds are elucidated in the (Supplementary Data S3; Table S2).
(§2) The guidelines of the Drug Evaluation Branch’s protocol at the NCI in Bethesda served as the basis for the in vitro anticancer screening assays. at one dose 10 µM against a panel of 60 cancer cell lines. The human tumor cell lines used belonged to nine panels: leukemia, melanoma, lung, colon, CNS, ovarian, renal, prostate and breast cancers using the sulforhodamine B (SRB) assay in a 48 h drug exposure protocol.

HL-60(TB) = assay: NCI-60 one-dose SRB screen (Leukemia); details: Homo sapiens, single dose 10 µM, 48 h, read-out: Growth inhibition percent (GI %)
Description: as §1, §2

K-562 = assay: NCI-60 one-dose SRB screen (Leukemia); details: Homo sapiens, K562, single dose 10 µM, 48 h, read-out: Growth inhibition percent (GI %)
Description: as §1, §2

MOLT-4 = assay: NCI-60 one-dose SRB screen (Leukemia); details: Homo sapiens, single dose 10 µM, 48 h, read-out: Growth inhibition percent (GI %)
Description: as §1, §2

RPMI-8226 = assay: NCI-60 one-dose SRB screen (Leukemia); details: Homo sapiens, single dose 10 µM, 48 h, read-out: Growth inhibition percent (GI %)
Description: as §1, §2

SR = assay: NCI-60 one-dose SRB screen (Leukemia); details: Homo sapiens, single dose 10 µM, 48 h, read-out: Growth inhibition percent (GI %)
Description: as §1, §2

A549/ATCC = assay: NCI-60 one-dose SRB screen (Non-Small Cell Lung Cancer); details: Homo sapiens, single dose 10 µM, 48 h, read-out: Growth inhibition percent (GI %)
Description: as §1, §2

EKVX = assay: as above; details: Homo sapiens, single dose 10 µM, 48 h, read-out: Growth inhibition percent (GI %)
Description: as §1, §2

HOP-62 = assay: as above; details: Homo sapiens, single dose 10 µM, 48 h, read-out: Growth inhibition percent (GI %)
Description: as §1, §2

HOP-92 = assay: as above; details: Homo sapiens, single dose 10 µM, 48 h, read-out: Growth inhibition percent (GI %)
Description: as §1, §2

NCI-H226 = assay: as above; details: Homo sapiens, single dose 10 µM, 48 h, read-out: Growth inhibition percent (GI %)
Description: as §1, §2

NCI-H23 = assay: as above; details: Homo sapiens, single dose 10 µM, 48 h, read-out: Growth inhibition percent (GI %)
Description: as §1, §2

NCI-H322M = assay: as above; details: Homo sapiens, single dose 10 µM, 48 h, read-out: Growth inhibition percent (GI %)
Description: as §1, §2

NCI-H460 = assay: as above; details: Homo sapiens, single dose 10 µM, 48 h, read-out: Growth inhibition percent (GI %)
Description: as §1, §2

NCI-H522 = assay: as above; details: Homo sapiens, single dose 10 µM, 48 h, read-out: Growth inhibition percent (GI %)
Description: as §1, §2

COLO 205 = assay: NCI-60 one-dose SRB screen (Colon Cancer); details: Homo sapiens, single dose 10 µM, 48 h, read-out: Growth inhibition percent (GI %)
Description: as §1, §2

HCC-2998 = assay: NCI-60 one-dose SRB screen (Colon Cancer); details: Homo sapiens, single dose 10 µM, 48 h, read-out: Growth inhibition percent (GI %)
Description: as §1, §2

HCT-116 = assay: NCI-60 one-dose SRB screen (Colon Cancer); details: Homo sapiens, single dose 10 µM, 48 h, read-out: Growth inhibition percent (GI %)
Description: as §1, §2

HCT-15 = assay: NCI-60 one-dose SRB screen (Colon Cancer); details: Homo sapiens, single dose 10 µM, 48 h, read-out: Growth inhibition percent (GI %)
Description: as §1, §2

HT29 = assay: NCI-60 one-dose SRB screen (Colon Cancer); details: Homo sapiens, HT-29, single dose 10 µM, 48 h, read-out: Growth inhibition percent (GI %)
Description: as §1, §2

KM12 = assay: NCI-60 one-dose SRB screen (Colon Cancer); details: Homo sapiens, single dose 10 µM, 48 h, read-out: Growth inhibition percent (GI %)
Description: as §1, §2

SW-620 = assay: NCI-60 one-dose SRB screen (Colon Cancer); details: Homo sapiens, single dose 10 µM, 48 h, read-out: Growth inhibition percent (GI %)
Description: as §1, §2

SF-268 = assay: NCI-60 one-dose SRB screen (CNS Cancer); details: Homo sapiens, single dose 10 µM, 48 h, read-out: Growth inhibition percent (GI %)
Description: as §1, §2

SF-295 = assay: NCI-60 one-dose SRB screen (CNS Cancer); details: Homo sapiens, single dose 10 µM, 48 h, read-out: Growth inhibition percent (GI %)
Description: as §1, §2

SF-539 = assay: NCI-60 one-dose SRB screen (CNS Cancer); details: Homo sapiens, single dose 10 µM, 48 h, read-out: Growth inhibition percent (GI %)
Description: as §1, §2

SNB-19 = assay: NCI-60 one-dose SRB screen (CNS Cancer); details: Homo sapiens, single dose 10 µM, 48 h, read-out: Growth inhibition percent (GI %)
Description: as §1, §2

SNB-75 = assay: NCI-60 one-dose SRB screen (CNS Cancer); details: Homo sapiens, single dose 10 µM, 48 h, read-out: Growth inhibition percent (GI %)
Description: as §1, §2

U251 = assay: NCI-60 one-dose SRB screen (CNS Cancer); details: Homo sapiens, U-251, single dose 10 µM, 48 h, read-out: Growth inhibition percent (GI %)
Description: as §1, §2

LOX IMVI = assay: NCI-60 one-dose SRB screen (Melanoma); details: Homo sapiens, single dose 10 µM, 48 h, read-out: Growth inhibition percent (GI %)
Description: as §1, §2

M14 = assay: NCI-60 one-dose SRB screen (Melanoma); details: Homo sapiens, single dose 10 µM, 48 h, read-out: Growth inhibition percent (GI %)
Description: as §1, §2

Measured: inhibition at 10 µM

COc1ccc(-c2nn(-c3ccc(S(N)(=O)=O)cc3)cc2C(=O)NNC(N)=S)cc1 [Compound 9c, 2-[3-(4-Methoxyphenyl)-1-(4-sulfamoylphenyl)-1H-pyrazole-4-carbonyl] hydrazine-1-carbothioamide]
8.06%: NCI-H522
< 5%: all other assays above
